Data taken from ChEMBL document CHEMBL5291721, “A preclinical secondary pharmacology resource illuminates target-adverse drug reaction associations of marketed drugs” (Nat Commun, 2023).

What was measured:
[1] = target: T1, Muscarinic acetylcholine receptor M1 (Homo sapiens, UniProt P11229); assay type: functional, cell-based
T1 sequence (P11229 whole entry): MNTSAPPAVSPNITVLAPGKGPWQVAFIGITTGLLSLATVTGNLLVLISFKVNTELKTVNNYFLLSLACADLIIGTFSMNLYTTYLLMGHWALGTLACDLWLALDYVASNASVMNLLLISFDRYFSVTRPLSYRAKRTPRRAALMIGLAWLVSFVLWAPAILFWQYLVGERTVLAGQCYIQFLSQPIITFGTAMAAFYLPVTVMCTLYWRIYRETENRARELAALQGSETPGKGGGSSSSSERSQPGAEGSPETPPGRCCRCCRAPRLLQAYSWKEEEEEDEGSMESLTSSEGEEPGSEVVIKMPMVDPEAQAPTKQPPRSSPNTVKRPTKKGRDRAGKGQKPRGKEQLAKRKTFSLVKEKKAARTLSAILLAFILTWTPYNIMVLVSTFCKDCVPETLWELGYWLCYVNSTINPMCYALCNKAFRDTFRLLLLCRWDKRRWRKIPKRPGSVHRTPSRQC

[2] = target: Sodium-dependent serotonin transporter (Homo sapiens, UniProt P31645)
Sequence of Sodium-dependent serotonin transporter (P31645 whole entry): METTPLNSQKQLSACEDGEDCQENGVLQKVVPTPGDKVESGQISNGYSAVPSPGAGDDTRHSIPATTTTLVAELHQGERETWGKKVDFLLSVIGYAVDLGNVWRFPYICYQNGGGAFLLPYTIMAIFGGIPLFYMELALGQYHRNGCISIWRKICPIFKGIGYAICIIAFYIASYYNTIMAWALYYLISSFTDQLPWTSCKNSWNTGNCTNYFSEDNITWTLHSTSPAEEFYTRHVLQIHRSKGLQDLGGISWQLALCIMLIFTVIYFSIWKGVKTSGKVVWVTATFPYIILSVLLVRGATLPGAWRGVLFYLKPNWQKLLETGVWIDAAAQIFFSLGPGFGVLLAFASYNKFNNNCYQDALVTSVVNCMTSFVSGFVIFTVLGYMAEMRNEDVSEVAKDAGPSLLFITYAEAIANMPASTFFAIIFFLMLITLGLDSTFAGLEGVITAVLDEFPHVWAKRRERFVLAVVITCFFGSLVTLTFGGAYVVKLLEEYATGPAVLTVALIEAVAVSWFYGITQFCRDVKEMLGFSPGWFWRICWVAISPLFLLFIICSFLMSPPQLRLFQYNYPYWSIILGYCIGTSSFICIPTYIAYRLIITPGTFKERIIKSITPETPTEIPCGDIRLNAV

[3] = target: T1, Muscarinic acetylcholine receptor M1; assay type: functional
[4] = target: T2, Muscarinic acetylcholine receptor M2 (Homo sapiens, UniProt P08172); assay type: functional, cell-based
T2 sequence (P08172 whole entry): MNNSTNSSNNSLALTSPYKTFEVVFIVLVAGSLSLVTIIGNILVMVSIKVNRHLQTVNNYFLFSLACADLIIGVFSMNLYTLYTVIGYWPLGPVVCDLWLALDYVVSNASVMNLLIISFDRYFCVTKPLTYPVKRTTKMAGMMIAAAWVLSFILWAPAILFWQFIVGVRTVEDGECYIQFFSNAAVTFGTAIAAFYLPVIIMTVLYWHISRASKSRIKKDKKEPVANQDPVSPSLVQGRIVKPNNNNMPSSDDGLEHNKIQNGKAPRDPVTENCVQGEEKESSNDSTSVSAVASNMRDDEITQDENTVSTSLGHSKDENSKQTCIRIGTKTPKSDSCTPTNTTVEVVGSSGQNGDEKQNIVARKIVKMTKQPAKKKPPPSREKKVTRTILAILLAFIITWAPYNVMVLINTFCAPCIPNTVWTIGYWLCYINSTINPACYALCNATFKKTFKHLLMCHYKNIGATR

[5] = target: Glutamate receptor ionotropic, NMDA 1 (Rattus norvegicus, UniProt P35439)
[6] = target: T3, Alpha-1A adrenergic receptor (Homo sapiens, UniProt P35348); assay type: functional, cell-based
T3 sequence (P35348 whole entry): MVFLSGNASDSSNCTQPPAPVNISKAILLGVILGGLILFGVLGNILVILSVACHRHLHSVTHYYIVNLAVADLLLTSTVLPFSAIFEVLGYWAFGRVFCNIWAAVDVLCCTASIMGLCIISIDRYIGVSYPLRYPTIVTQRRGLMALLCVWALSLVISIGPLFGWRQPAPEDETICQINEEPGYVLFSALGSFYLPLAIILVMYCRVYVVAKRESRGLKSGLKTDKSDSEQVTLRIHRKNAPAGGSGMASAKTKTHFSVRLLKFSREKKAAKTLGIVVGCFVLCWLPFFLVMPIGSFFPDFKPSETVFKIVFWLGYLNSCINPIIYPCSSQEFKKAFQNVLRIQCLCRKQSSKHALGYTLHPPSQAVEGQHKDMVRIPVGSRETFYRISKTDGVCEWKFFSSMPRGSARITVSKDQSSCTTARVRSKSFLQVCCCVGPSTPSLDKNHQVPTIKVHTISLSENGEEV

D(1A) dopamine receptor = D(1A) dopamine receptor (Homo sapiens, UniProt P21728); assay type: functional, cell-based
Sequence of D(1A) dopamine receptor (P21728 whole entry): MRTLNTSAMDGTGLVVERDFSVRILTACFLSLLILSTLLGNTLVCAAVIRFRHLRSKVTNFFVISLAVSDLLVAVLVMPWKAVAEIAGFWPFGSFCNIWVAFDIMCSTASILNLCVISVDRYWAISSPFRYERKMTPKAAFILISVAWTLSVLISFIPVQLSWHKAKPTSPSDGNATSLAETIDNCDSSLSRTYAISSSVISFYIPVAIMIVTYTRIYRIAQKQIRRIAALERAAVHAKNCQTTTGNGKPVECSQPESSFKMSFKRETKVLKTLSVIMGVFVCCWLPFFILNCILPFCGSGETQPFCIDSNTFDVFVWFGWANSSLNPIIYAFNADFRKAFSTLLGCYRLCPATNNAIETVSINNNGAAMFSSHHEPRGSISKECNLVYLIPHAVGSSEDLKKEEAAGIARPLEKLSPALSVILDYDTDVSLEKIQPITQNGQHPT

Cannabinoid receptor 1 = Cannabinoid receptor 1 (Homo sapiens, UniProt P21554); assay type: functional, cell-based
Sequence of Cannabinoid receptor 1 (P21554 whole entry): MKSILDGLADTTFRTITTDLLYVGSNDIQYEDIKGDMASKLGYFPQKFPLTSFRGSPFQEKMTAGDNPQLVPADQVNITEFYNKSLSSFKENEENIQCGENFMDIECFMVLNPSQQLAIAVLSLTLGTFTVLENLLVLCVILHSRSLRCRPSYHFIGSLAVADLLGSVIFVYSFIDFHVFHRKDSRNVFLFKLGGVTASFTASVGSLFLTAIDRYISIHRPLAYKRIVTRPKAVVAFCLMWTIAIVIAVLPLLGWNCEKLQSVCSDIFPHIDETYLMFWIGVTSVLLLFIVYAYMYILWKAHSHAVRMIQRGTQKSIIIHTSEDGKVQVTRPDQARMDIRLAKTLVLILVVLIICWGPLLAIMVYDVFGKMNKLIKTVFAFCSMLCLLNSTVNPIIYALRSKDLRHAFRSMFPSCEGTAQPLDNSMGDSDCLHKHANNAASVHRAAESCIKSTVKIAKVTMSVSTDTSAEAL

[7] = target: T4, Gamma-aminobutyric acid receptor subunit alpha-1 (Rattus norvegicus, UniProt P62813)
T4 sequence (P62813 whole entry): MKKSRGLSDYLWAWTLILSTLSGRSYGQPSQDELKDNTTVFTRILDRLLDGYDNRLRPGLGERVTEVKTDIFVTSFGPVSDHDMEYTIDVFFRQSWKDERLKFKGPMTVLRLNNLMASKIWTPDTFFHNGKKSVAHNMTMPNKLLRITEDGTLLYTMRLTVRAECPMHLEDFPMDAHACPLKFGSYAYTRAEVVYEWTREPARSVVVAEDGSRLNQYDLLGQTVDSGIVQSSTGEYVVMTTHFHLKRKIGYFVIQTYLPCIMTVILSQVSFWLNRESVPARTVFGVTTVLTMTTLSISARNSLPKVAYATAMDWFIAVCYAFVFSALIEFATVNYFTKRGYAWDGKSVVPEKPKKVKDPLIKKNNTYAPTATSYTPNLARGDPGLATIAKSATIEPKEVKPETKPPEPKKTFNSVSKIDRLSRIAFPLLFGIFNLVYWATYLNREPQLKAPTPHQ

[8] = target: Delta-type opioid receptor (Homo sapiens, UniProt P41143)
Sequence of Delta-type opioid receptor (P41143 whole entry): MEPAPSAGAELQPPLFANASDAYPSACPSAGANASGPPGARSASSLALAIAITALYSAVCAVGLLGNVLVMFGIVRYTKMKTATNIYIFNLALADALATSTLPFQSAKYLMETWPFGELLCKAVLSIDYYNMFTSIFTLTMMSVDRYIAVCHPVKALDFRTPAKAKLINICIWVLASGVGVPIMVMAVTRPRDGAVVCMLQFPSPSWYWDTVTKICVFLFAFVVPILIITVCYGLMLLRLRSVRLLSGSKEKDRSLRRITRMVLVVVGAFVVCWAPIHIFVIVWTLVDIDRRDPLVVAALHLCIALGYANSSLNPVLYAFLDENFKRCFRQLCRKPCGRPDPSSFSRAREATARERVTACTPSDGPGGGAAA

[9] = target: T4, Gamma-aminobutyric acid receptor subunit alpha-1; remark: listed apart in the source
[10] = target: T3, Alpha-1A adrenergic receptor; assay type: functional, cell-based; remark: listed apart in the source
[11] = target: T5, Prostaglandin G/H synthase 1 (Rattus norvegicus, UniProt Q63921); assay type: functional
T5 sequence (Q63921 whole entry): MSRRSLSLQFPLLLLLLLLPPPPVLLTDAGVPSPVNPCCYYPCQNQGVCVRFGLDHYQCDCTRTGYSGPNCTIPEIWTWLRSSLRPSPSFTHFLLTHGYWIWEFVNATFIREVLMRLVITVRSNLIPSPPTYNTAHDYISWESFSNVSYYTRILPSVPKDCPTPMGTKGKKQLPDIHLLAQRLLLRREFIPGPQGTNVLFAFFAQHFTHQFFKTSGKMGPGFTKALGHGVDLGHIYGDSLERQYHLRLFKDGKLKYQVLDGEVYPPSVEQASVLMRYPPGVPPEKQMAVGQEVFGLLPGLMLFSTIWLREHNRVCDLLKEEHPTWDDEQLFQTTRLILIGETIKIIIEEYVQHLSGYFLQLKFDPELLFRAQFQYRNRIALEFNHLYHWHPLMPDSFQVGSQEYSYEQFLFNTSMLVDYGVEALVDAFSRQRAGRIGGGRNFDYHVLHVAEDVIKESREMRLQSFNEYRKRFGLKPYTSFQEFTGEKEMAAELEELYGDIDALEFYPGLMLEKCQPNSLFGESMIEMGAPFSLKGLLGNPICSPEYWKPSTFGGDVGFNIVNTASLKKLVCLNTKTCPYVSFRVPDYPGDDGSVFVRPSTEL

[12] = target: 5-hydroxytryptamine receptor 2B (Homo sapiens, UniProt P41595); assay type: functional, cell-based
Sequence of 5-hydroxytryptamine receptor 2B (P41595 whole entry): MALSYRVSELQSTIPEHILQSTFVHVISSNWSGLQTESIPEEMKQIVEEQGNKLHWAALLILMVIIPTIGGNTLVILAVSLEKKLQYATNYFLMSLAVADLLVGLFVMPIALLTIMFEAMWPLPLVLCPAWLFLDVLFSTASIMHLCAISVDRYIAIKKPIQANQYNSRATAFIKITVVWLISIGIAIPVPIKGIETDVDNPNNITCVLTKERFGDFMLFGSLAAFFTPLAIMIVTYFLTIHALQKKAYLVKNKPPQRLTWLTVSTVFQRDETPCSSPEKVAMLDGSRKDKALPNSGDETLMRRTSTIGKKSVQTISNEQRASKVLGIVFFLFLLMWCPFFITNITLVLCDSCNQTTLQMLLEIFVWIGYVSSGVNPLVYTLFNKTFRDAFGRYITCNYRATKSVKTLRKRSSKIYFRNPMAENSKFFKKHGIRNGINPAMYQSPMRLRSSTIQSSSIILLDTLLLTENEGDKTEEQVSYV
Note: assay procedure not described here.

With `CC(C)Cc1ccc(C(C)C(=O)NO)cc1` (centres undefined) [IBUPROXAM] the AC50 [1] was 20.1 µM and the AC50 [2] was > 30 µM.
For `CC/C=C\C/C=C\C/C=C\C/C=C\C/C=C\CCCC(=O)O` [ICOSAPENT], the AC50 [1] was > 30 µM and the AC50 [2] was > 30 µM.
Work on `CCN(CC)CCNc1ccc(C)c2sc3ccccc3c(=O)c12` [LUCANTHONE] yielded an AC50 [1] of 4.21 µM and an AC50 [2] of 6.25 µM.
In the case of `CN1C(=O)N(C)C2C1N(C)C(=O)N2C` (centres undefined) [MEBICAR], the AC50 [3] is reported as > 30 µM, the AC50 [4] is reported as > 30 µM and the AC50 [5] is reported as > 30 µM. The AC50 [6] was > 30 µM, the AC50 (D(1A) dopamine receptor) was > 30 µM and the AC50 (Cannabinoid receptor 1) was > 30 µM. For the same compound, the AC50 [7] was > 30 µM, the AC50 [2] was > 30 µM and the AC50 [8] was > 30 µM. For the same compound, the AC50 [9] was > 30 µM and the AC50 [10] was > 30 µM.
`CC(=O)O[C@]1(C(C)=O)CC[C@H]2[C@@H]3C[C@H](C)C4=CC(=O)CC[C@]4(C)[C@H]3CC[C@@]21C` [MEDROXYPROGESTERONE ACETATE] was tested, and the AC50 [11] was > 30 µM and the AC50 [9] was 13.4 µM.
In the case of `Cn1cc[nH]c1=S` [METHIMAZOLE], the AC50 [9] is reported as > 30 µM.
`CO[C@@]12[C@H](COC(N)=O)C3=C(C(=O)C(C)=C(N)C3=O)N1C[C@@H]1N[C@@H]12` [MITOMYCIN] was tested, and the AC50 [9] was > 30 µM.
`Nc1ccc(/N=N/c2ccccc2)c(N)n1` [PHENAZOPYRIDINE] was tested, and the AC50 [3] was 4.1 µM, the AC50 [4] was > 30 µM and the AC50 [5] was > 30 µM. The AC50 [6] was > 30 µM, the AC50 (D(1A) dopamine receptor) was > 30 µM and the AC50 [12] was > 30 µM. For the same compound, the AC50 (Cannabinoid receptor 1) was > 30 µM, the AC50 [7] was > 30 µM and the AC50 [2] was > 30 µM. For the same compound, the AC50 [8] was 2.9 µM, the AC50 [9] was > 30 µM and the AC50 [10] was > 30 µM.
`CC[C@@H]1/C=C(\C)C[C@H](C)C[C@H](OC)[C@H]2O[C@@](O)(C(=O)C(=O)N3CCCC[C@H]3C(=O)O[C@H](/C(C)=C/[C@@H]3CC[C@H](Cl)[C@H](OC)C3)[C@H](C)[C@@H](O)CC1=O)[C@H](C)C[C@@H]2OC` [PIMECROLIMUS] was tested, and the AC50 [1] was > 30 µM and the AC50 [2] was > 30 µM.
For `CC(C(=O)O)c1ccc2c(c1)Cc1cccnc1O2` (centres undefined) [PRANOPROFEN], the AC50 [1] was > 30 µM and the AC50 [2] was > 10 µM.
In the case of `CN1CCC2=C(C1)c1ccccc1Cc1ccccc12` [SETIPTILINE], the AC50 [1] is reported as 8.28 µM and the AC50 [2] is reported as 8.15 µM.
For `COc1ccc(CCC(C)NCC(O)c2ccc(O)c([S+](C)[O-])c2)cc1` (centres undefined) [SULFINALOL], the AC50 [1] was > 30 µM and the AC50 [2] was 0.866 µM.
For `O=C1CCC(N2C(=O)c3ccccc3C2=O)C(=O)N1` (centres undefined) [THALIDOMIDE], the AC50 [11] was > 30 µM, the AC50 [4] was > 10 µM and the AC50 [5] was > 10 µM. For the same compound, the AC50 [6] was > 30 µM, the AC50 (D(1A) dopamine receptor) was > 10 µM and the AC50 [12] was > 10 µM. For the same compound, the AC50 (Cannabinoid receptor 1) was > 30 µM, the AC50 [7] was > 10 µM and the AC50 [8] was > 30 µM. For the same compound, the AC50 [9] was > 30 µM and the AC50 [10] was > 30 µM.
For `C[C@@H]1O[C@@H](OC[C@H]2O[C@@H](Oc3c(-c4ccc(OCCO)c(OCCO)c4)oc4cc(OCCO)cc(O)c4c3=O)[C@H](O)[C@@H](O)[C@@H]2O)[C@H](O)[C@H](O)[C@H]1O` [TROXERUTIN], the AC50 [1] was > 30 µM and the AC50 [2] was > 30 µM.
